Where “and” joins values, the source holds several entries; their conditions need not be identical. Equal entries are not always repeated.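 Compound exposure: 48 hours, 5 concentrations, 96-well plates. Here, GI50 denotes the concentration required for 50% inhibition of growth. TGI denotes the concentration required for complete inhibition of growth.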
Tests used:
Test in all cases: NCI anticancer screen, dose series, 48 h
CAKI-1 renal = test system: CAKI-1 renal
NCI-H23 lung = test system: NCI-H23 lung
MDA-MB-231 breast = test system: MDA-MB-231 breast
OVCAR-8 ovarian = test system: OVCAR-8 ovarian
RPMI-8226 leukemia = test system: RPMI-8226 leukemia
SNB-19 CNS = test system: SNB-19 CNS
EKVX NSCLC = test system: EKVX NSCLC
RXF 393 renal = test system: RXF 393 renal
HCC-2998 colon = test system: HCC-2998 colon
HL-60(TB) leukemia = test system: HL-60(TB) leukemia

| SMILES | GI50 (CAKI-1 renal) | TGI (CAKI-1 renal) | GI50 (NCI-H23 lung) | TGI (NCI-H23 lung) | GI50 (MDA-MB-231 breast) | TGI (MDA-MB-231 breast) | GI50 (OVCAR-8 ovarian) | TGI (OVCAR-8 ovarian) | GI50 (RPMI-8226 leukemia) | TGI (RPMI-8226 leukemia) | GI50 (SNB-19 CNS) | TGI (SNB-19 CNS) | GI50 (EKVX NSCLC) [µM] | TGI (EKVX NSCLC) | GI50 (RXF 393 renal) | TGI (RXF 393 renal) [µM] | GI50 (HCC-2998 colon) [µM] | TGI (HCC-2998 colon) [µM] | TGI (HL-60(TB) leukemia) [µM] | GI50 (HL-60(TB) leukemia) [µM] |
| --- | --- | --- | --- | --- | --- | --- | --- | --- | --- | --- | --- | --- | --- | --- | --- | --- | --- | --- | --- | --- |
| O=C1c2ccccc2-c2c1c1ccccc1c(=O)n2CCNCCCNCCn1c2c(c3ccccc3c1=O)C(=O)c1ccccc1-2 | 0.563 µM | 1.24 µM | 0.249 µM | 1.13 µM | 0.161 µM | 0.548 µM | 0.0101 µM | 0.361 µM | 0.00933 µM | 0.259 µM | 0.389 µM | > 50 µM | 1.07 | 3.07 µM | < 0.005 µM | 0.577 | – | – | – | – |
| COC(=O)C(Cc1ccccc1)N/C=C\C(=O)c1ccc(Cl)cc1 (stereo unspecified) | 21.3 µM | 44.4 µM | 18.3 µM | 45.7 µM | 14.4 µM | 40.9 µM | 35.3 µM | 88.9 µM | 36.7 µM | > 100 µM | 38 µM | > 100 µM | – | – | 20.4 µM | 53.3 | 18.5 | 40.1 | – | – |
| Cc1ccc([N+](=O)[O-])c2c(NCCCN(C)C)ccnc12 | – | > 100 µM | – | > 100 µM | – | > 100 µM | – | > 100 µM | – | > 100 µM | – | > 100 µM | – | > 100 µM | – | > 100 | – | 45.5 | > 100 | – |
| CC(=O)O[C@H]1C(=O)[C@@]2(C)[C@H]([C@H](OC(=O)c3ccccc3)[C@]3([O-])C[C@H](OC(=O)[C@H]([O-])[C@@H](NC(=O)c4ccccc4)c4ccccc4)C(C)=C1C3(C)C)[C@]1(OC(C)=O)CO[C@@H]1C[C@@H]2[O-].[Fe+3] | 2.41 µM and 3.53 µM | 54.5 µM and > 100 µM | 0.0685 µM and 0.164 µM | 65 µM and > 100 µM | 0.746 µM and 0.732 µM | 63.9 µM and 32.2 µM | 0.0971 µM and 0.0721 µM | 15.5 µM and 27.3 µM | 0.0294 µM and 0.074 µM | 65 µM and > 100 µM | 0.281 µM and 0.534 µM | 65 µM and > 100 µM | – | 65 µM and > 100 µM | 0.117 µM and 0.0955 µM | – | 0.0365 | 0.295 | 0.301 | 0.0639 |
| C=CC(=O)Nc1cccc(Nc2nc(Nc3ccc(OCCOC)cc3)ncc2F)c1 | 0.511 µM | 2.46 µM | 5.67 µM | 29.1 µM | 2.85 µM | 24.7 µM | 3.19 µM | 45.1 µM | 3.28 µM | 23.3 µM | 3.91 µM | 37.4 µM | 3.16 | 15.6 µM | 0.387 µM | 2.73 | 3.55 | 19.5 | 41.7 | 7.7 |
| Oc1ccc(Cc2ccccc2)c2cccnc12 | 2.22 µM | 8.96 µM | 2.9 µM | 57.1 µM | 4.36 µM | 27.4 µM | 2.35 µM | > 100 µM | 1.46 µM | > 100 µM | 3.08 µM | > 100 µM | 2.32 | > 100 µM | 2.3 µM | 19.2 | 3.65 | 16.6 | 6.65 | 1.56 |
| CCCSc1cc(Cl)nc(N)n1 | 90.7 µM | > 100 µM | > 100 µM | > 100 µM | > 100 µM | > 100 µM | > 100 µM | > 100 µM | > 100 µM | > 100 µM | > 100 µM | > 100 µM | > 100 | > 100 µM | > 100 µM | > 100 | > 100 | > 100 | 50.5 | 6.48 |
| N#Cc1c(-c2ccccc2)nc2c(c(-c3ccccc3)nn2-c2ccccc2)c1-c1ccc(O)cc1 | 2.48 µM | 6.7 µM | 1.78 µM | 3.84 µM | 1.7 µM | 3.31 µM | 3.14 µM | 11.7 µM | 2.42 µM | 17.9 µM | 1.9 µM | 3.8 µM | 1.92 | 5.1 µM | 1.03 µM | 2.35 | 1.84 | 3.47 | 23.7 | 3.52 |
| CN1CCN(Cc2ccc(NC(=O)c3ccc(C(C)(C)C)c(C#Cc4cnc5cccnn45)c3)cc2C(F)(F)F)CC1 | 12.1 µM | 26.7 µM | 1.85 µM | 3.89 µM | 1.97 µM | 4.14 µM | 2.58 µM | 5.61 µM | 2.54 µM | 6.11 µM | 2.1 µM | 4.14 µM | 5.8 | 19.3 µM | 1.8 µM | 3.4 | 1.83 | 3.38 | 6.5 | 2.62 |
| CCn1c(-c2nonc2N)nc2ccc(F)cc21 | > 25 µM | > 25 µM | > 25 µM | > 25 µM | > 25 µM | > 25 µM | > 25 µM | > 25 µM | > 25 µM | > 25 µM | > 25 µM | > 25 µM | > 22.2 | > 25 µM | > 25 µM | > 25 | > 25 | > 25 | > 25 | > 25 |
| CC(=O)[CH-]C(C)=O.CC(=O)[CH-]C(C)=O.N=CC=N.[Sn+2] | 2.54 µM | 7.23 µM | 3.23 µM | 10.9 µM | 2.72 µM | 9.87 µM | 2.11 µM | 4.74 µM | 1.48 µM | 4.38 µM | 14.6 µM | 27.8 µM | 6.42 | 19.4 µM | 1.53 µM | 3.34 | 12.5 | 25.2 | 15.3 | 2.09 |
| Cn1c(N)nc2c(nc(OCc3ccccc3)n2C2OC(CO)C(O)C2O)c1=O (stereo unspecified) | – | > 100 µM | – | – | – | > 100 µM | – | > 100 µM | – | > 100 µM | – | > 100 µM | – | > 100 µM | – | > 100 | – | – | > 100 | – |
| Cc1sc(C)c(-c2ccc(CO)o2)c1-c1ccc(CO)o1 | 1.16 µM | > 100 µM | > 100 µM | > 100 µM | 51 µM | > 100 µM | 75.4 µM | > 100 µM | 13.5 µM | > 100 µM | > 100 µM | > 100 µM | – | – | 0.316 µM | > 100 | > 83.9 | > 100 | > 100 | 52.5 |

— PubChem BioAssay (NCI)
